Test results: patent US20260166159A1, “KRAS G12D DEGRADATION AGENT, AND PREPARATION METHOD AND USE THEREFOR” (LEADINGTAC PHARMACEUTICAL (SHAOXING) CO., LTD., priority 2022, published 2026)

Assays:
KRAS-G12D [1] = target: T1, KRAS-G12D (Homo sapiens, UniProt P01116, G12D); test: KRAS-G12D degradation assay (Western Blot), A-427 cells; format: cell-based; details: A427 cells, 24 h; for Dmax: A-427
T1 construct: endogenous in cells; host or cells: A-427 (ATCC), AGS, AsPc-1, Panc 04.03
Procedure, shortened: (§1)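 Western blotting of lysates (5 μg protein) quantified KRAS against a β-actin reference after 24 h exposure to compound at final 0.03–3000 nM in 0.25% DMSO. Cells were A-427, AGS, AsPc-1 or Panc 04.03, all KRAS G12D, at 5×10^5/well. Degradation versus control yielded DC50 and Dmax.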

KRAS-G12D [2] = target: T1, KRAS-G12D; test: KRAS-G12D degradation assay (Western Blot), AGS cells; format: cell-based; details: 24 h
Experimental: (§2) The degradation effects of the compounds on KRAS-G12D were investigated on KRAS G12D mutant human lung cancer cell A-427 (ATCC), KRAS G12D mutant human gastric cancer cell AGS, KRAS G12D mutant human metastatic pancreatic cancer cell AsPc-1, and KRAS G12D mutant human pancreatic adenocarcinoma cell Panc 04.03. The specific procedures were as follows: 0.95 mL of cells were seeded into each well of a 24-well cell culture plate to achieve a cell density of 5×10^5 cells/well; and the cell plate was incubated in an incubator at 37° C. with 5% CO2 overnight. Then 50 μL of the compound solution after dilution was added to each of the wells with the corresponding cells, so that the final concentration of the compound was in a range of 0.03-3000 nM. The final concentration of DMSO was 0.25%. After the compounds were added, the cell plate was incubated in the incubator at 37° C. with 5% CO2 for 24 h. The culture medium in the 24-well cell culture plate was removed, and the plate was washed twice with 1×PBS (KeyGEN). 120 μL of RIPA (strong) lysis buffer (Beyotime) supplemented with 1 mM phenylmethylsulfonyl fluoride, a protease inhibitor mixture (Beyotime), and a protease phosphatase inhibitor mixture (Beyotime) was added to lyse adherent A-427 cells at the bottom of the cell culture plate. After the plate was left to stand on ice for 30 min, the protein lysate in each well was transferred to a 1.5 mL centrifuge tube and centrifuged at 15000 g for 20 min at 4° C. The cell lysate supernatants after centrifugation were cryopreserved in a refrigerator at −80° C. for later use.
(§3) After the samples of the cell lysate supernatants that had been prepared were thawed from the refrigerator at −80° C., the total protein concentrations of the cell lysates were determined using a BCA protein quantification kit (Tiangen). The total protein concentrations of the samples were then adjusted to 0.5 μg/μL with PBS and 5×SDS-PAGE protein loading buffer (Beyotime), and the samples were incubated in a water bath at 100° C. for 15 min. The samples were then incubated in an ice bath for 5 min and centrifuged at 14000 g for 1 min at 4° C., and the supernatants were mixed well as loading samples for the Western Blot assay. The samples were loaded into wells of a 10% precast gel (KeyGEN) with a loading volume of 10 μL (total protein: 5 μg), a sufficient Tris-MOPS-SDS running buffer (Adamas) was added, and then electrophoresis was performed at a constant voltage of 120 V for 55 min. After the electrophoresis, the proteins on the gel were transferred to PVDF membranes at a constant current of 250 mA for 55 min. After the membrane transfer, the PVDF membranes were incubated in 1× Quick Block blocking buffer (Beyotime) at room temperature for 30 min. After the blocking, the PVDF membranes were separately incubated at 4° C. overnight with the KRAS antibody (Abcam) diluted in a ratio of 1:1000 and the […] antibody (Abcam) diluted in a ratio of 1:2000 in 5% BSA as the diluent, and then washed with 1×TBST buffer (2.4 g of Tris, 8.8 g of NaCl, 1.5 mL of Tween 20, with pH adjusted to 7.4, with the volume brought to 1 L) 3 times for 10 min/time. The membranes were incubated with a secondary antibody (Abcam) diluted in 5% BSA at room temperature for 2 h, and then washed with 1×TBST buffer 3 times for 10 min/time. Finally, the membranes were incubated with Clarity Western ECL Substrate (BIO-RAD) for 5 min for luminescence and color development, and a ChemiScope 6200 Touch chemiluminescence imaging system (Clinx) was used for color development and protein mapping. Gray value analysis of the protein maps was performed using the chemiluminescence analysis software (Clinx). The gray correction value for each sample was calculated using the formula: gray correction value=(gray value of target protein/gray value of corresponding internal reference)×10^3. Then degradation rates were calculated by comparison with the gray correction value of the control group. […]

KRAS-G12D [3] = target: T1, KRAS-G12D; test: KRAS-G12D degradation assay (Western Blot), AsPc-1 cells; format: cell-based; details: for DC50: 24 h; for Dmax: ASPC1, 24 h
Procedure, shortened: as §1

KRAS-G12D [4] = target: T1, KRAS-G12D; test: KRAS-G12D degradation assay (Western Blot), Panc 04.03 cells; format: cell-based; details: 24 h
Experimental: as §2, §3

[5] = test system: KRAS G12D mutant human lung cancer cell A427; test: 3D cell proliferation inhibition assay, A427; format: cell-based; details: A-427, 168 h, A427, 7 days, CTG
Procedure, shortened: (§4)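 3D growth, low-adsorption plate; 5×10^2 cells/well; cpd 10000–0.026 nM final, 0.2% DMSO; 7 d, 37 °C/5% CO2. CTG luminescence, 60 min RT. % inhibition vs DMSO (cells) and medium blanks; IC50 by nonlinear fit.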

[6] = test system: KRAS G12D mutant human gastric cancer cell AGS; test: 3D cell proliferation inhibition assay, AGS; format: cell-based; details: 168 h, 7 days, CTG
Procedure, shortened: as §4

[7] = test system: KRAS G12D mutant human metastatic pancreatic cancer cell AsPc-1; test: 3D cell proliferation inhibition assay, AsPc-1; format: cell-based; details: ASPC1, 168 h, AsPc-1, 7 days, CTG
Procedure, shortened: as §4

[8] = test system: KRAS G12D mutant human pancreatic cancer cell Panc 04.03; test: 3D cell proliferation inhibition assay, Panc 04.03; format: cell-based; details: 168 h, Panc 04.03, 7 days, CTG
Procedure, shortened: as §4

[9] = test system: KRAS G12D mutant human pancreatic cancer cell HPAC; test: 3D cell proliferation inhibition assay, HPAC; format: cell-based; details: 168 h, 7 days, CTG
Procedure, shortened: as §4

[10] = target: T2, Human KRAS G12D 6His-tagged (Homo sapiens, UniProt P01116, G12D); test: KRAS-G12D/GTP binding assay (HTRF); details: class symbols
T2 construct: purchased PerkinElmer
Procedure, shortened: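 Compounds at 0.02-5000 nM final (0.5% DMSO) were tested for blocking GTP Red tracer binding to His-tagged KRAS G12D, detected by Eu-cryptate anti-His antibody after 1 h, 25° C. Inhibition taken from 665/620 nm ratio relative to control, then fitted to give IC50.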

T1 sequence (P01116 1-188 isoform P01116-2 G12D): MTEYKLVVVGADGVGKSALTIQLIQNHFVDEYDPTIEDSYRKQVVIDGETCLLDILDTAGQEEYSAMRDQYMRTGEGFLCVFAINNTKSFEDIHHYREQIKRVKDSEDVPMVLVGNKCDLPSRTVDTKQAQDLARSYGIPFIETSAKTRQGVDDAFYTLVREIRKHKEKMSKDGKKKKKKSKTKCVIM
T2 sequence (P01116 1-188 isoform P01116-2 G12D): as above

| Compound | DC50 (KRAS-G12D [1]; class symbols) | Dmax (KRAS-G12D [1]; class symbols) | DC50 (KRAS-G12D [2]) | Dmax (KRAS-G12D [2]) | DC50 (KRAS-G12D [3]) | Dmax (KRAS-G12D [3]) | DC50 (KRAS-G12D [4]) | Dmax (KRAS-G12D [4]) | IC50 ([5]; class symbols) | IC50 ([6]; class symbols) | IC50 ([7]; class symbols) | IC50 ([8]; class symbols) | IC50 [9] | IC50 [10] | DC50 (KRAS-G12D [1]; numeric values) | Dmax (KRAS-G12D [1]; numeric values) | IC50 ([5]; numeric values) | IC50 ([6]; numeric values) | IC50 ([7]; numeric values) | IC50 ([8]; numeric values) |
| --- | --- | --- | --- | --- | --- | --- | --- | --- | --- | --- | --- | --- | --- | --- | --- | --- | --- | --- | --- | --- |
| CCc1cccc2cc(O)cc(-c3ncc4c(N5CC6CCC(C5)N6)nc(OCC5(CN6CCN(CC7CCC8(CC7)CCN(C(=O)c7ccc(Cl)c(N9CCC(=O)NC9=O)c7)CC8)CC6)CC5)nc4c3F)c12 [Example 50, 1-(5-(9-((4-((1-(((4-(3,8-diazabicyclo[3.2.1]octan-3-yl)-7-(8-ethyl-3-hydroxynaphthalen-1-yl)-8-fluoropyrido[4,3-d]pyrimidin-2-yl)oxy)methyl)cyclopropyl)methyl)piperazin-1-yl)methyl)-3-azaspiro [5.5]undecane-3-carbonyl)-2-chlorophenyl)dihydropyrimidine-2,4(1H,3H)-dione] | ≤ 50 nM | 80 to 100% | 1.73 nM | 97.3% | 33.1 nM | 100% | 31.9 nM | 99.3% | ≤ 50 nM | ≤ 50 nM | ≤ 50 nM | ≤ 50 nM | 11.6 nM | – | – | – | – | – | – | – |
| CCc1cccc2cc(O)cc(-c3ncc4c(N5CC6CCC(C5)N6)nc(OCC5(CN6CCN(CC7CCC8(CC7)CCN(C(=O)c7ccc(C)c(N9CCC(=O)NC9=O)c7)CC8)CC6)CC5)nc4c3F)c12 [Example 51, 1-(5-(9-((4-((1-(((4-(3,8-diazabicyclo[3.2.1]octan-3-yl)-7-(8-ethyl-3-hydroxynaphthalen-1-yl)-8-fluoropyrido[4,3-d]pyrimidin-2-yl)oxy)methyl)cyclopropyl)methyl)piperazin-1-yl)methyl)-3-azaspiro[5.5]undecane-3-carbonyl)-2-methylphenyl)dihydropyrimidine-2,4(1H,3H)-dione] | ≤ 50 nM | 80 to 100% | 9.87 nM | 97.2% | 4.79 nM | 99.4% | 23 nM | 93.8% | ≤ 50 nM | ≤ 50 nM | ≤ 50 nM | ≤ 50 nM | 4.55 nM | – | – | – | – | – | – | – |
| C#Cc1cccc2cc(O)cc(-c3ncc4c(N5CC6CCC(C5)N6)nc(OCC5(CN6CCN(CC7CCC8(CC7)CCN(C(=O)c7ccc(C)c(N9CCC(=O)NC9=O)c7)CC8)CC6)CC5)nc4c3F)c12 [Example 55, 1-(5-(9-((4-((1-(((4-(3,8-diazabicyclo[3.2.1]octan-3-yl)-7-(8-ethynyl-3-hydroxynaphthalen-1-yl)-8-fluoropyrido[4,3-d]pyrimidin-2-yl)oxy)methyl)cyclopropyl)methyl)piperazin-1-yl)methyl)-3-azaspiro[5.5]undecane-3-carbonyl)-2-methylphenyl)dihydropyrimidine-2,4(1H,3H)-dione] | ≤ 50 nM | 80 to 100% | 1.91 nM | 99.2% | 11.1 nM | 95.2% | 4.08 nM | 98.6% | ≤ 50 nM | ≤ 50 nM | – | – | 4.28 nM | ≤ 50 nM | – | – | – | – | – | – |
| Cc1ccc(C(=O)N2CCC3(CCC(CN4CCN(CC5(COc6nc(N7CC8CCC(C7)N8)c7cnc(-c8cc(O)cc(Cl)c8C8CC8)c(F)c7n6)CC5)CC4)CC3)CC2)cc1N1CCC(=O)NC1=O [Example 81, 1-(5-(9-((4-((1-(((4-(3,8-diazabicyclo[3.2.1]octan-3-yl)-7-(3-chloro-2-cyclopropyl-5-hydroxyphenyl)-8-fluoropyrido[4,3-d]pyrimidin-2-yl)oxy)methyl)cyclopropyl)methyl)piperazin-1-yl)methyl)-3-azaspiro[5.5]undecane-3-carbonyl)-2-methylphenyl)dihydropyrimidine-2,4(1H,3H)-dione] | – | – | 2.99 nM | 80.3% | 17.8 nM | 98.2% | – | – | – | – | – | – | 4.37 nM | – | 16.8 nM | 76.5% | 67.1 nM | 5.52 nM | 13 nM | 27.8 nM |
| C#Cc1c(F)ccc2cc(O)cc(-c3ncc4c(N5CC6CCC(C5)N6)nc(OC[C@H](C)CN5CCN(CC6CCC7(CC6)CCN(C(=O)c6ccc(OC)c(N8CCC(=O)NC8=O)c6)CC7)CC5)nc4c3F)c12 [Example 90] | – | – | 10.6 nM | 98.9% | 1.87 nM | 100% | – | – | – | – | – | – | 2.44 nM | – | 0.86 nM | 95.6% | 28.3 nM | 0.65 nM | 1.19 nM | 8.82 nM |
| [2H]C([2H])([2H])c1ccc(C(=O)N2CCC3(CCC(CN4CCN(C[C@@H](C)COc5nc(N6CC7CCC(C6)N7)c6cnc(-c7cc(O)cc8ccc(F)c(C#C)c78)c(F)c6n5)CC4)CC3)CC2)cc1N1CCC(=O)NC1=O [Example 109, 1-(5-(9-((4-((R)-3-((4-(3,8-diazabicyclo[3.2.1]octan-3-yl)-7-(8-ethynyl-7-fluoro-3-hydroxynaphthalen-1-yl)-8-fluoropyrido[4,3-d]pyrimidin-2-yl)oxy)-2-methylpropyl)piperazin-1-yl)methyl)-3-azaspiro[5.5]undecane-3-carbonyl)-2-(methyl-d3)phenyl)dihydropyrimidine-2,4(1H,3H)-dione] | – | – | 4.8 nM | 94.5% | 0.64 nM | 98.8% | – | – | – | – | – | – | 1.62 nM | – | – | – | – | 3.98 nM | 1.42 nM | 6.73 nM |
